Biological target: T1, human recombinant Yes [a.a. 2–543 (end)] (Homo sapiens, UniProt P07947)
T1 construct: human recombinant Yes [a.a; 2–543 (end)]; purchased BPS Bioscience 40488
Assay: ADP-Glo kinase assay, inhibition rates of Yes phosphorylation activity (first and second screening)
Format: biochemical
Settings: 10 μmol L−1 compound; for First screening IR (inhibition rate): mean of n = 4 wells; for Second screening IR (inhibition rate): dissolved from fresh powder, n = 4
Experimental: All inhibitory assays of the phosphorylation activity of Yes were performed in accordance with the Promega Technical Manual for the ADP-Glo™ Kinase Assay (Fitchburg, WI, USA. Catalog number: V9102). The human recombinant Yes [a.a. 2–543 (end)] was purchased from BPS Bioscience (catalog number: 40488). The details of the assay protocol and reagent information are given elsewhere.
The screening was conducted in three steps consisting of the first screening, the second screening, and the IC50 determination, as can be illustrated in Fig. 1b. First, we determined the inhibition rates of the 1,991 compounds. Each compound was placed in 4 wells of a 384-well plate. In total, 80 compounds were assayed on one plate and the other wells were used for positive and negative controls. The compounds were randomly placed on plates so that compounds proposed by one group were not placed on a plate together. A mean of four inhibition rates for each compound was compared to criteria for the first screening. […] Second, the inhibition rates of the screened compounds were determined on one plate using the same procedure of the first screening, where compounds were dissolved from fresh powder. […] Screened compounds were then evaluated for their IC50 values.

T1 sequence (P07947 2-543): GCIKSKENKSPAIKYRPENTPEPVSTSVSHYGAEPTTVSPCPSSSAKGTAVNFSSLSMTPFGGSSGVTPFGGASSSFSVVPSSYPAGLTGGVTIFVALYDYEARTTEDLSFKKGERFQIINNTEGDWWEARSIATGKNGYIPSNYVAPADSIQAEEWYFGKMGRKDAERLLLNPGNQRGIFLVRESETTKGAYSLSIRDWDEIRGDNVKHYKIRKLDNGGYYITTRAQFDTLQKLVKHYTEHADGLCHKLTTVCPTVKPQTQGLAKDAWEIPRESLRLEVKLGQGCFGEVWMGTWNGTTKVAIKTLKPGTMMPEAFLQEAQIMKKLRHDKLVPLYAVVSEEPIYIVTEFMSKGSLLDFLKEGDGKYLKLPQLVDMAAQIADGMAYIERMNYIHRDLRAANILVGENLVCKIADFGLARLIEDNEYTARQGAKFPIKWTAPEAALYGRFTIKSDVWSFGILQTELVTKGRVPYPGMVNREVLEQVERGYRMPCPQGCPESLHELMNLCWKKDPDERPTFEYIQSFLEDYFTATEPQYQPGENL

| First screening IR (inhibition rate) [%] | Second screening IR (inhibition rate) [%] | Compound |
| --- | --- | --- |
| 59 | -7 | Cc1ccc(-c2cc(-c3ccccc3)c3cc(Cl)ccc3n2)cc1.Cl [Compound Z48950811] |
| 7 | – | Nc1nc(-c2ccccc2)c2cc(C(=O)c3ccccc3O)cnn12 [Compound Z199055452] |
| 0 | – | NC(=O)c1ccc(C(=O)N2CCN(c3ccccn3)CC2)cc1 [Compound Z51750245] |
| -3 | – | O=S(=O)(c1ccccc1C(F)(F)F)N1CCN(Cc2ncc(-c3ccc(Cl)cc3)o2)CC1 [Compound Z105146244] |
| 40 | – | Cc1ccc(-c2cc(C(=O)O)c3c(C)nn(-c4ccc(C)cc4C)c3n2)cc1 [Compound Z55871149] |
| 9 | – | COCCNC(=O)CN1CCN(c2nc(-c3cccnc3)nc3scc(-c4ccccc4)c23)CC1 [Compound Z128012326] |
| 45 | -12 | c1ccc2nc(Nc3cn[nH]c3)cnc2c1 [Compound Z729018028] |
| 7 | – | O=S1(=O)CCC(N2CCN(Cc3cc(Cl)cc(C4CCCCC4)c3O)CC2)C1 (centres unmarked) [Compound Z827167912] |
| 3 | – | COc1ccc(-c2cc(C(=O)Nc3ccc(N4CCN(C)CC4)cc3C)c3ccccc3n2)cc1OC [Compound Z27974061] |
| 8 | – | O=C(/C=c1/[nH]c(=O)/c(=C\c2ccc(Cl)cc2)s1)c1ccncc1 [Compound Z319403812] |
| -2 | – | CCc1ccccc1Nc1nc(N)nc(CSCC(=O)c2cc(C)n(C)c2C)n1 [Compound Z45360560] |
| 6 | – | O=C(NCc1ccncc1)c1cnn(-c2ccc(Cl)cc2)c1C(F)(F)F [Compound Z94739043] |
| -43 | – | CCn1ncc2c(C(=O)O)cc(-c3ccccc3)nc21 [Compound Z56648330] |
| -7 | – | COc1ccc(-c2csc3nc(C)nc(N4CCCN(CC(=O)NC(C)(C)C)CC4)c23)cc1OC [Compound Z128141646] |
| 6 | – | CC(C)c1ccc(N2C(=O)Cc3c2nc(N)c2c(N)nc(N4CCCC4)c(C#N)c32)cc1 [Compound Z55589601] |
| -4 | – | Cc1cc(NC(=O)Cn2nc(C)c(S(=O)(=O)N3CCCCC3)c2C)no1 [Compound Z92593810] |
| 11 | – | O=C1OCCN1Cc1ccc(Nc2nccc(C(F)(F)F)n2)cc1 [Compound Z646432252] |
| 4 | – | O=C(CCc1ccsc1)Nc1cc(C(F)(F)F)c[nH]c1=O [Compound Z432185696] |
| -9 | – | CCN(CC)c1ccc(/C=C2\CCC(/C=N/NC(=O)NC3CCCCC3)=C2N2CCOCC2)cc1 [Compound Z56769590] |
| 5 | – | O=C(c1cc(-c2ccccc2)nc2c1cnn2Cc1cccc(F)c1)N1CCC1 [Compound Z117073454] |
| 52 | – | CS1(=O)=NC=C(C(=O)O)C=C1 (centres unmarked) [Compound Z1262519784] |
| -7 | – | O=C(Nc1ccc(C2(c3ccc(NC(=O)c4ccc(N5CCCCCC5)c([N+](=O)[O-])c4)cc3)CCCCC2)cc1)c1ccc(N2CCCCCC2)c([N+](=O)[O-])c1 [Compound Z56818449] |
| 0 | – | Cc1cc(CN2CCSCC2)ccc1NC(=O)c1ccnc(N(C)C)c1 [Compound Z978895402] |
| 6 | – | O=C(CN1C(=O)NC(Cc2c[nH]c3ccccc23)C1=O)Nc1ccc(-c2ccccc2)cc1 (centres unmarked) [Compound Z16202306] |
| -18 | – | C#CCN(C)S(=O)(=O)c1cc(S(C)(=O)=O)sc1Cl [Compound Z1863649257] |
| 6 | – | CN(CC(=O)N1CCN(CC(=O)NC(C)(C)C)CC1)c1ncnc2cc(-c3ccc(F)cc3)sc12 [Compound Z64655268] |
| -2 | – | N#Cc1ccccc1CSCCNC(=O)N1CCN(c2ncc(C(F)(F)F)cc2Cl)CC1 [Compound Z352490104] |

From paper PMC5607274, “An iterative compound screening contest method for identifying target protein inhibitors using the tyrosine-protein kinase Yes” (Scientific Reports, 2017)
